Measured values from patent US8084621B2, “3-Pyrrolo[b]cyclohexylene-2-dihydroindolinone derivatives and uses thereof” (Jiangsu Simcere Pharmaceutical R&D Co. Ltd., priority 2006, dated 2011).
pIC50: −log10 of the molar value.

How the values were obtained:
Format in all cases: cell-based
[1] = system: Human Hepatocellular Carcinoma Cell Line (HEPG2); experiment: Tumor cell proliferation assay (MTT), HEPG2; conditions: for inhibition at 10 µM: concentration of 10^−5 mol/L, preliminary screening, 72 hours, read-out: Inhibition rate % HEPG2; for pIC50: secondary screening, 48 hours
Text: (§1) The assay used generally is the blue tetrazolium bromide (MTT) method. […] The amount of formazan can be detected by the microplate reader through the absorption value at 570 nm. The amount of formazan product generated is proportional to the number of living cells in the sample, so the OD value may reflect the number of living cells and the ability of a test drug to inhibit or kill cells. The MTT assay may be used in determining the ability of different compounds of the present invention to inhibit one or more cancer cells proliferation. Similar assays can be designed along the same lines for any cancer cell using techniques well known in the art.
(§2) The assay used generally is the blue tetrazolium bromide (MTT) method. […] Intracellular purple formazan salt crystals can be solved in DMSO and the absorption value at 570 nm is detected by the microplate reader, then the number of living cells can be detected indirectly. So MTT assay may be used to determine the ability of a compound of the present invention to inhibit cell proliferation. Similar assays can be designed along the same lines for any cancer cell using techniques well known in the art.
2.2.8 Human Hepatocellular Carcinoma Cell Line (HEPG2);
The cells of 2.2.8, 2.2.9 cultured in DMEM/High glucose medium containing 12% calf serum in the condition of 37° C., 5% CO2.
(§3) 2.3.1 Cell seeding: Trypsinize the cell by 0.05% trypsin-EDTA and add RPMI 1640 medium (DMEM or 5A) containing 12% calf serum. Count the number, then dilute to 1.67×10^4/ml. Add 180 ul/well to the 96 well plate (3000 cells/well).
(§4) 2.3.2 Culture: cells are incubated for 24 hours at 37° C. under 5% CO2.
(§5) 2.3.3 Preliminary screening: The compounds are firstly diluted to 0.1 mol/L with DMSO, and then diluted to three concentrations of 10^−5 mol/L, 10^−6 mol/L and 10^−7 mol/L. Add 20 ul test compounds to the 96 well plate and incubate for 72 hours. Each group has three parallel wells and all experiments repeat three times. Each inhibition ratio is calculated, then an average value of three times is taken as the measured value. 2.3.4 Staining 2.3.4.1 Attached cell: add 20 ul/well MTT to the 96-well plates; incubate for 4 hours in the incubator. Pour out the culture medium in the well and add 100 ul/well DMSO. Shake the plate for 5 min. 2.3.4.2 Suspension cell: add 20 ul/well MTT to the 96-well plates; incubate for 4 hours in the incubator. Add 50 ul/well 20% SDS and incubate for overnight in the incubator. 2.3.5 Reading the plates: read the absorbance A570-A630 with the Infinite M200 microtiter plate reader. Calculate the inhibition ratio of the test compounds. 2.3.6 Secondary screening: the compounds whose inhibition ratio is greater than 50% at the concentrations of 10^−5 mol/L in the preliminary screening will be picked out for Secondary screening. Dilute these compounds to ten concentrations: 10^−5 mol/L, 0.5×10^−5 mol/L, 10^−6 mol/L, 0.8×10^−6 mol/L, 0.6×10^−6 mol/L, 0.4×10^−6 mol/L, 0.2×10^−6 mol/L, 10^−7 mol/L, 0.8×10^−7 mol/L and 0.4×10^−7 mol/L. Add 20 ul test compound solution to the 96 well plate and incubate for 48 hours. Each group has three parallel wells and all experiments repeat for three times. Read the plates and calculate the inhibition ratio according to the preliminary screening method. 2.3.7 Calculate the Inhibition Ratio of Cell Proliferation and the IC50
(§6) According to the inhibition ratio of cell proliferation at the different concentrations of the compound, inhibition ratio of 50% of the test compound is calculated through the logarithm of the concentration of the compound with the Logit [I] linear regression, and an average value of three times is taken as the measured value of a sample.

[2] = system: Human Non-Small Cell Lung Cancer Cell Line (A549); experiment: Tumor cell proliferation assay (MTT), A549; conditions: for inhibition at 10 µM: concentration of 10^−5 mol/L, preliminary screening, 72 hours, read-out: Inhibition rate % A549; for pIC50: secondary screening, 48 hours
Text: as §1, §2
2.2.2 Human Non-Small Cell Lung Cancer Cell Line (A549)
(§7) The cells of the 2.2.1, 2.2.2, 2.2.3, 2.2.4, 2.2.5 cultured with RPMI 1640 containing 12% calf serum in the condition of 37° C., 5% CO2.
as §3, §4, §5, §6

[3] = system: Human Pancreatic Carcinoma Cell Line (BXPC-3); experiment: Tumor cell proliferation assay (MTT), BXPC-3; conditions: for inhibition at 10 µM: concentration of 10^−5 mol/L, preliminary screening, 72 hours, read-out: Inhibition rate % BXPC-3; for pIC50: secondary screening, 48 hours
Text: as §1, §2
2.2.6 Human Pancreatic Carcinoma Cell Line (BXPC-3);
(§8) The cells of 2.2.6, 2.2.7 cultured in RPMI 1640 medium containing 12% fetal bovine serum in the condition of 37° C., 5% CO2.
as §3, §4
as §5, with “2.3.6 Secondary screening: the compounds whose inhibition ratio is greater than 50% at the concentrations of 10^−5 mol/L in the preliminary screening will be picked out for Secondary screening.” left out
as §6

[4] = system: Human Gastric Cancer Cell Line (BGC); experiment: Tumor cell proliferation assay (MTT), BGC; conditions: for inhibition at 10 µM: concentration of 10^−5 mol/L, preliminary screening, 72 hours, read-out: Inhibition rate % BGC; for pIC50: secondary screening, 48 hours
Text: as §1, §2
2.2.1 Human Gastric Cancer Cell Line (BGC)
as §7, §3, §4, §5, §6

[5] = system: Human Bladder Cancer Cell Line (T24); experiment: Tumor cell proliferation assay (MTT), T24; conditions: for inhibition at 10 µM: concentration of 10^−5 mol/L, preliminary screening, 72 hours, read-out: Inhibition rate % T24; for pIC50: secondary screening, 48 hours
Text: as §1, §2
2.2.7 Human Bladder Cancer Cell Line (T24);
as §8, §3, §4, §5, §6

[6] = system: Human Colon Cancer Cell Line (HT-29); experiment: Tumor cell proliferation assay (MTT), HT29; conditions: for inhibition at 10 µM: concentration of 10^−5 mol/L, preliminary screening, 72 hours, read-out: Inhibition rate % HT29; for pIC50: secondary screening, 48 hours
Text: as §1, §2
2.2.11 Human Colon Cancer Cell Line (HT-29);
(§9) The cells of 2.2.11, 2.2.12, 2.2.13 were cultured in MC COYS 5-A medium containing 12% fetal bovine serum in the condition of 37° C., 5% CO2.
as §3, §4
as §5, with “2.3.6 Secondary screening: the compounds whose inhibition ratio is greater than 50% at the concentrations of 10^−5 mol/L in the preliminary screening will be picked out for Secondary screening.” left out
as §6

[7] = system: Human Pancreatic Carcinoma Cells (PANC-1); experiment: Tumor cell proliferation assay (MTT), PANC-1; conditions: for inhibition at 10 µM: concentration of 10^−5 mol/L, preliminary screening, 72 hours, read-out: Inhibition rate % PANC-1; for pIC50: secondary screening, 48 hours
Text: as §1, §2
2.2.4 Human Pancreatic Carcinoma Cells (PANC-1)
as §7, §3, §4, §5, §6

[8] = system: Human Colon Cancer Cell Line (CACO-2); experiment: Tumor cell proliferation assay (MTT), CACO-2; conditions: concentration of 10^−5 mol/L, preliminary screening, 72 hours, read-out: Inhibition rate % CACO-2
Text: as §1, §2
2.2.10 Human Colon Cancer Cell Line (CACO-2)
The cell of 2.2.10 cultured in DMEM/High glucose medium containing 12% fetal bovine serum in the condition of 37° C., 5% CO2.
as §3, §4, §5, §6

[9] = system: Human Ovarian Cancer Cell Line (SK-OV-3); experiment: Tumor cell proliferation assay (MTT), SK-OV-3; conditions: for inhibition at 10 µM: concentration of 10^−5 mol/L, preliminary screening, 72 hours, read-out: Inhibition rate % SK-OV-3; for pIC50: secondary screening, 48 hours
Text: as §1, §2
2.2.13 Human Ovarian Cancer Cell Line (SK-OV-3).
as §9, §3, §4, §5, §6

[10] = system: Human Small Cell Lung Cancer Cell Line (NCI-H446); experiment: Tumor cell proliferation assay (MTT), NCI-H446; conditions: for inhibition at 10 µM: concentration of 10^−5 mol/L, preliminary screening, 72 hours, read-out: Inhibition rate % NCI-H446; for pIC50: secondary screening, 48 hours
Text: as §1, §2
2.2.5 Human Small Cell Lung Cancer Cell Line (NCI-H446)
as §7, §3, §4, §5, §6

[11] = system: Human Leukemia Line (K562); experiment: Tumor cell proliferation assay (MTT), K562; conditions: concentration of 10^−5 mol/L, preliminary screening, 72 hours, read-out: Inhibition rate % K562
Text: as §1, §2
2.2.3 Human Leukemia Line (K562)
as §7, §3, §4, §5, §6

[12] = system: Human Colon Cancer Cell Line (HCT 116); experiment: Tumor cell proliferation assay (MTT), HCT116; conditions: concentration of 10^−5 mol/L, preliminary screening, 72 hours, read-out: Inhibition rate % HCT116
Text: as §1, §2
2.2.12 Human Colon Cancer Cell Line (HCT 116);
as §9, §3, §4, §5, §6

SMILES | inhibition at 10 µM [1] | inhibition at 10 µM [2] | inhibition at 10 µM [3] | inhibition at 10 µM [4] | inhibition at 10 µM [5] | inhibition at 10 µM [6] | inhibition at 10 µM [7] | inhibition at 10 µM [8] | also measured
Cc1[nH]c2c(c1C(=O)N1CCOCC1)CCC/C2=C1/C(=O)Nc2ccc(F)cc21 [I-10, 2-methyl-3-(morpholine-4-carbonyl)-7-[1,2-dihydro-5-fluoro-2-oxo-3H-indol-(Z)-3-ylidene]-4,5,6,7-tetrahydro-1H-indole] | 43.5% | 7.64% | 51.7% | 15.2% | 27.5% | 30.9% | 11.7% | 0% | 
Cc1[nH]c2c(c1C(=O)N1CCOCC1)CCC/C2=C1/C(=O)Nc2ccc(Cl)cc21 [I-11, 2-methyl-3-(morpholine-4-carbonyl)-7-[1,2-dihydro-5-chloro-2-oxo-3H-indol-(Z)-3-ylidene]-4,5,6,7-tetrahydro-1H-indole] | 2.92% |  |  |  | 0% |  |  |  | 
Cc1[nH]c2c(c1C(=O)NCC(O)CN1CCCCC1)CCC/C2=C1/C(=O)Nc2ccc(Cl)cc21 (stereo not drawn) [I-75, N-(2-hydroxy-3-(piperidin-1-yl)propyl)-2-methyl-7-[1,2-dihydro-5-chloro-2-oxo-3H-indol-(Z)-3-ylidene]-4,5,6,7-tetrahydro-1H-indole-3-carboxamide] | 99% | 40.1% | 73.1% | 45.4% | 99.9% | 67.3% | 53.6% |  | pIC50 [1]: 5.44; pIC50 [2]: 4.84; pIC50 [3]: 5.35; pIC50 [4]: 4.95; pIC50 [5]: 5.40; pIC50 [6]: 5.29; pIC50 [7]: 5.45; inhibition at 10 µM [9]: 49.2%; pIC50 [9]: 5.24; inhibition at 10 µM [10]: 44.1%; pIC50 [10]: 5.03
Cc1[nH]c2c(c1C(=O)N1CCN(C)CC1)CCC/C2=C1/C(=O)Nc2ccccc21 [I-13, 2-methyl-3-(4-methylpiperazine-1-carbonyl)-7-[1,2-dihydro-2-oxo-3H-indol-(Z)-3-ylidene]-4,5,6,7-tetrahydro-1H-indole] | 46% | 3.82% | 42.4% | 11.1% | 9.04% | 63.2% | 0% | 9.79% | 
CCOC(=O)c1c(C)[nH]c2c1CCC/C2=C1/C(=O)Nc2ccc(F)cc21 [I-1, ethyl 2-methyl-7-[1,2-dihydro-5-fluoro-2-oxo-3H-indol-(Z)-3-ylidene]-4,5,6,7-tetrahydro-1H-indole-3-carboxylate] |  |  |  |  |  |  |  |  | inhibition at 10 µM [11]: 28.6%
CCN(CC)CC(O)CNC(=O)c1c(C)[nH]c2c1CCC/C2=C1/C(=O)Nc2ccc(Cl)cc21 (stereo not drawn) [I-65, N-(3-(diethylamino)-2-hydroxypropyl)-2-methyl-7-[1,2-dihydro-5-chloro-2-oxo-3H-indol-(Z)-3-ylidene]-4,5,6,7-tetrahydro-1H-indole-3-carboxamide] | 100% | 85% | 99.2% | 91.1% | 97.9% | 98.3% | 98.1% |  | pIC50 [1]: 5.55; pIC50 [2]: 5.62; pIC50 [3]: 5.94; pIC50 [4]: 5.76; pIC50 [5]: 5.56; pIC50 [6]: 5.51; pIC50 [7]: 5.78; inhibition at 10 µM [9]: 95.7%; pIC50 [9]: 5.65; inhibition at 10 µM [10]: 99%; pIC50 [10]: 5.82
Cc1[nH]c2c(c1C(=O)N(C)C)CCC/C2=C1/C(=O)Nc2ccccc21 [I-15, N,N,2-trimethyl-7-[1,2-dihydro-2-oxo-3H-indol-(Z)-3-ylidene]-4,5,6,7-tetrahydro-1H-indole-3-carboxamide] | 61.1% |  |  |  | 74.8% |  |  |  | 
Cc1[nH]c2c(c1C(=O)N1CCOCC1)CCC/C2=C1/C(=O)Nc2ccccc21 [I-12, 2-methyl-3-(morpholine-4-carbonyl)-7-[1,2-dihydro-2-oxo-3H-indol-(Z)-3-ylidene]-4,5,6,7-tetrahydro-1H-indole] | 12.8% | 1.1% | 29.5% | 31.9% | 14.6% | 78.4% | 23.3% | 11.7% | inhibition at 10 µM [12]: 36.5%
